Measured values: publication PMC4941645, “Oxidative Stress Induced by Pt(IV) Pro-drugs Based on the Cisplatin Scaffold and Indole Carboxylic Acids in Axial Position” (Scientific Reports, 2016)

Columns and labels:
A375 melanoma cells = assay: Cellular accumulation of Pt (GF-AAS); type: cell-based, human; details: for cellular platinum accumulation (in words): A375, 1.5 and 3 μM, 6 and 24 h
A375 cells [1] = assay: Hoechst 33258 staining, apoptosis morphology; type: cell-based, human; details: A375, IC50 doses, 48 h
Protocol: A375 cells were seeded into 8-well tissue-culture slides (BD Falcon, Bedford, MA, USA) at 5 × 10^4 cells/well (0.8 cm^2).

caspase-3 = assay: Caspase-3 activation; type: cell-based, human; details: A375, IC50 doses, 48 h
Protocol: Caspase-3 cleavage reached values similar to that exerted by the well-known caspase-dependent apoptosis inducer staurosporine.
Protein aliquots (100 μg) were stained at 37 °C for 60 min with fluorescent caspase-3 substrate N-acetyl-Asp-Glu-Val-Asp-AMC (AMC = 7-amino-4-methylcoumarin) (Sigma Co.). Substrate hydrolysis was measured after 60 min by monitoring the release of AMC using a spectrofluorimeter (excitation at 370 nm, emission at 460 nm).

A375 cells [2] = assay: Mitochondrial membrane potential; type: cell-based, human; details: A375, IC50 concentrations, 24 and 48 h
Protocol: A persistent increase in the rate of ROS production is responsible for the accumulation of ROS. In turn, an increase in cellular ROS leads to the loss of the mitochondrial membrane potential (ΔΨm, MMP), thus possibly leading to the induction of apoptosis. The effect induced by the Pt(IV) complexes on the MMP was assessed by treating A375 cells with IC50 concentrations of 1P and 1A and evaluating the energization of treated melanoma cells in terms of the retention of the cationic fluorescent probe tetramethyl rhodamine methyl ester (TMRM).
Figure 9 Effects of 1P and 1A on the cellular mitochondrial membrane potential. […] The percentage of cells with a hypopolarized mitochondrial membrane potential was determined fluorimetrically.
The ΔΨm was assayed using the Mito-ID® Membrane Potential Kit according to the manufacturer’s instructions (Enzo Life Sciences, Farmingdale, NY). Briefly, A375 cells (8 × 10^3 per well) were seeded in 96-well plates, after 24 h, cells were washed with PBS and loaded with Mito-ID Detection Reagent for 30 min at 37 °C in the dark. Afterwards, cells were washed with PBS and incubated with increasing concentrations of the tested complexes. The fluorescence was estimated using a plate reader (Fluoroskan Ascent FL, Labsystem, Finland) at 490 (excitation) and 590 nm (emission).

[3] = Reduction with ascorbic acid followed by HPLC; type: physicochemical; details: 10 eq. ascorbic acid, 37 °C, pH 7, HPLC; for complex reduced: 3 h incubation
Protocol: (§1) The reduction reaction of two representative complexes (1A and 1P) and the release of the indole carboxylic acid ligands was analyzed by HPLC using ascorbic acid as the reductant and 37 °C, pH 7 as physiological conditions (Fig. 4 and S1). The HPLC chromatograms of the reduction reaction of the complexes were compared with the chromatograms of pure samples of the carboxylic acid ligands. […] After 3 h incubation with 10 eq. of ascorbic acid 75% of 1P and 50% of 1A was reduced. […] We further studied the nature of the Pt(II) species produced upon the reduction of 1P and 1A by ^195Pt NMR. […] Unfortunately, monitoring the reduction reaction of the symetrically (2A and 2P) and unsymmetrically (3A–5A and 3P–5P) substituted dicarboxylato complexes was hampered by the poor solubility of the complexes in water and most organic solvents except DMF and DMSO. For the same reason the reduction potentials could not be determined by cyclic voltammetry. However it has been reported that the reduction rate of cis,cis,trans-[Pt(NH3)2Cl2(RCOO)(OH)] monocarboxylato complexes is faster than that of dicarboxylato complexes and this has been attributed to the fact that hydroxido ligands are much better bridging ligands for electron transfer than carboxylate ligands.
The reduction of the complexes 1A and 1P) with ascorbic acid was followed by HPLC using a Phenomenex Luna C18 ([…], 100 Å, 250 mm × 4.60 mm i.d.) column at a flow rate of 1.0 mL/min with 280 nm UV detection at room temperature. The mobile phase was 80:20 acetonitrile (1% trifluoroacetic acid) : water (1% trifluoroacetic acid). The complexes were dissolved in DMF (0.5 mL) and added to a 5 mM solution of ascorbic acid in 2 mM 4-(2-hydroxyethyl)piperazine-1-ethanesulfonic acid (HEPES) buffer (pH 7) and diluted to a final concentration of 0.5 mM using acetonitrile. The process was followed at 37 °C until complete reduction.

[4] = Reduction with ascorbic acid followed by 195Pt NMR; type: physicochemical; details: 1 eq. ascorbic acid, 37 °C
Protocol: as §1, with “However it has been reported that the reduction rate of cis,cis,trans-[Pt(NH3)2Cl2(RCOO)(OH)] monocarboxylato complexes is faster than that of dicarboxylato complexes and this has been attributed to the fact that hydroxido ligands are much better bridging ligands for electron transfer than carboxylate ligands.” left out
Compounds 1A and 1P (10 mM) were incubated at 37 °C, respectively, in the presence of 10 mM ascorbic acid in 12 mM HEPES buffer at pH 7. […] The ^195Pt NMR spectra were recorded by inserting a tube with D2O into the NMR tube.

[5] = tested on: panel of human tumor cell lines (BxPC3, HCT-15, MCF-7, A431, A549, A375); assay: MTT cytotoxicity, mean over panel of human tumor cell lines; type: cell-based; details: mean over the six cell lines of Table 1, 72 h
Protocol: The cytotoxic activity of the complexes and of the uncoordinated ligands was evaluated by the MTT test on a panel of human tumor cell lines containing examples of pancreatic (BxPC3), colorectal (HCT-15), breast (MCF-7), cervical (A431), and lung (A549) cancers as well as of melanoma (A375). For comparison purposes, the cytotoxicity of cisplatin was evaluated under the same experimental conditions.
The growth inhibitory effect toward tumor cells was evaluated by means of the MTT assay. Briefly, (3–8) × 10^3 cells/well, dependent upon the growth characteristics of the cell line, were seeded in 96-well microplates in growth medium (100 μL). After 24 h, the medium was removed and replaced with fresh medium containing the compound to be studied at the appropriate concentration. Triplicate cultures were established for each treatment. After 24, 48, or 72 h, each well was treated with 10 μL of a 5 mg/mL MTT saline solution and, after 5 h of incubation, 100 μL of a sodium dodecylsulfate (SDS) solution in 0.01 M HCl was added. After an overnight incubation, cell growth inhibition was detected by measuring the absorbance of each well at 570 nm using a Bio-Rad 680 microplate reader. The mean absorbance for each drug dose was expressed as a percentage of the control, untreated well absorbance and plotted vs drug concentration. The IC50 values, the drug concentrations that decrease the mean absorbance at 570 nm to 50% of that of untreated control wells, were calculated from the dose–response curves with the four-parameter logistic model (4PL). The final value is the mean ± S.D. of at least three independent experiments performed in triplicate.

Row | Structure (SMILES) | cellular platinum accumulation (in words) (A375 melanoma cells) | cellular uptake level, times lower than cisplatin (A375 melanoma cells; A375, GF-AAS) | apoptotic morphology (in words) (A375 cells [1]) | caspase-3 activity, factor over untreated control cells (caspase-3) | cells with decreased mitochondrial membrane potential (in words) (A375 cells [2]) | time to complete reduction [3] | complex reduced [3] | time to complete reduction [4] | cellular platinum, times greater than cisplatin (A375 melanoma cells; A375, 3 μM, 24 h, GF-AAS) | IC50 [5]
1 | [NH2][Pt]([NH2])([Cl])([Cl])([O]C(=O)CCC(=O)O)[O]C(=O)Cc1c[nH]c2ccccc12 [Complex 4A] | lowest platinum accumulation | about 7 |  |  |  |  |  |  |  | 
2 | [NH2][Pt]([NH2])([OH])([Cl])([Cl])[O]C(=O)Cc1c[nH]c2ccccc12 [Complex 1A] |  |  | morphological features typical of cells undergoing apoptosis | ~5 | significant and time-dependent increase | 30 h | 50% | 30 h |  | 
3 | [NH2][Pt]([NH2])([OH])([Cl])([Cl])[O]C(=O)CCc1c[nH]c2ccccc12 [Complex 1P, cis,cis,trans-[Pt(NH3)2Cl2(IPA)(OH)]] | internalized most efficiently |  | morphological features typical of cells undergoing apoptosis | ~5 | significant and time-dependent increase | 24 h | 75% | 24 h | about 2.3 | ~2500 nM
